Article PMC8793051 (ACS Omega, 2022)

What was measured:
HS 578T = assay: NCI-60 SRB growth assay; format: cell-based, human; details: HS578T
HT29 = assay: NCI-60 SRB growth assay; format: cell-based, human
CAKI-1 = assay: NCI-60 SRB growth assay; format: cell-based, human
MOLT-4 = assay: NCI-60 SRB growth assay; format: cell-based, human
BT-549 = assay: NCI-60 SRB growth assay; format: cell-based, human
SNB-75 = assay: NCI-60 SRB growth assay; format: cell-based, human
MALME-3M = assay: NCI-60 SRB growth assay; format: cell-based, human
RXF 393 = assay: NCI-60 SRB growth assay; format: cell-based, human
SF-539 = assay: NCI-60 SRB growth assay; format: cell-based, human
SK-MEL-28 = assay: NCI-60 SRB growth assay; format: cell-based, human
HEK = assay: MTT cytotoxicity assay; format: cell-based; details: Homo sapiens, HEK293, 48 h
MCF7 = assay: NCI-60 SRB growth assay; format: cell-based, human
OVCAR-4 = assay: NCI-60 SRB growth assay; format: cell-based, human
SK-MEL-2 = assay: NCI-60 SRB growth assay; format: cell-based, human; details: SK-MEL-2
T-47D = assay: NCI-60 SRB growth assay; format: cell-based, human
COLO 205 = assay: NCI-60 SRB growth assay; format: cell-based, human
UO-31 = assay: NCI-60 SRB growth assay; format: cell-based, human
UACC-62 = assay: NCI-60 SRB growth assay; format: cell-based, human
NCI/ADR-RES = assay: NCI-60 SRB growth assay; format: cell-based, human
NCI-H23 = assay: NCI-60 SRB growth assay; format: cell-based, human
U251 = assay: NCI-60 SRB growth assay; format: cell-based, human
SN12C = assay: NCI-60 SRB growth assay; format: cell-based, human
RPMI-8226 = assay: NCI-60 SRB growth assay; format: cell-based, human
SW-620 = assay: NCI-60 SRB growth assay; format: cell-based, human
HOP-62 = assay: NCI-60 SRB growth assay; format: cell-based, human
LOX IMVI = assay: NCI-60 SRB growth assay; format: cell-based, human
HCC-2998 = assay: NCI-60 SRB growth assay; format: cell-based, human
K-562 = assay: NCI-60 SRB growth assay; format: cell-based, human
SK-MEL-5 = assay: NCI-60 SRB growth assay; format: cell-based, human
NCI-H226 = assay: NCI-60 SRB growth assay; format: cell-based, human
MDA-MB-468 = assay: NCI-60 SRB growth assay; format: cell-based, human
[1] = tested on: panel of 60 human cancer cell lines; assay: cells; details: read-out: GI50 concentration range
PC-3 = assay: NCI-60 SRB growth assay; format: cell-based, human
CCRF-CEM = assay: NCI-60 SRB growth assay; format: cell-based, human

CCCN1CCN(c2ccc3[nH]c(-c4ccc5[nH]c(-c6ccc(OCC)c(OCC)c6)nc5c4)nc3c2)CC1 [11a, 2-(2-(3,4-Diethoxyphenyl)-1H-benzo[d]imidazol-5-yl)-5-(4-propylpiperazin-1-yl)-1H-benzo[d]imidazole]
TGI (HS 578T): >100000 nM | TGI (HT29; HT29): 2300 nM | GI50 (HT29; Homo sapiens, HT-29): 450 nM | CC50 (HT29; Homo sapiens, HT-29, read-out: LC50): > 100000 nM | TGI (CAKI-1; CAKI-1): 3030 nM | GI50 (CAKI-1; Homo sapiens, CAKI-1): 1040 nM | CC50 (CAKI-1; Homo sapiens, CAKI-1, read-out: LC50): 8800 nM | GI50 (MOLT-4; Homo sapiens, MOLT-4): 590 nM | CC50 (MOLT-4; Homo sapiens, MOLT-4, read-out: LC50): > 100000 nM | TGI (MOLT-4; MOLT-4): 4400 nM | TGI (BT-549; BT-549): 2720 nM | GI50 (BT-549; Homo sapiens, BT-549): 1220 nM | CC50 (BT-549; Homo sapiens, BT-549, read-out: LC50): 6070 nM | GI50 (SNB-75; Homo sapiens, SNB-75): 710 nM | CC50 (SNB-75; Homo sapiens, SNB-75, read-out: LC50): 4300 nM | TGI (SNB-75; SNB-75): 1900 nM | GI50 (MALME-3M; Homo sapiens, Malme-3M): 80 nM | CC50 (MALME-3M; Homo sapiens, Malme-3M, read-out: LC50): 3900 nM | TGI (MALME-3M; MALME-3M): 1200 nM | GI50 (RXF 393; Homo sapiens, RXF 393): 260 nM | CC50 (RXF 393; Homo sapiens, RXF 393, read-out: LC50): 3600 nM | TGI (RXF 393; RXF393): 900 nM | GI50 (SF-539; Homo sapiens, SF-539): 790 nM | CC50 (SF-539; Homo sapiens, SF-539, read-out: LC50): 4800 nM | TGI (SF-539; SF-539): 2100 nM | GI50 (SK-MEL-28; Homo sapiens, SK-MEL-28): 910 nM | CC50 (SK-MEL-28; Homo sapiens, SK-MEL-28, read-out: LC50): 5200 nM | TGI (SK-MEL-28; SK-MEL-28): 2200 nM | IC50 (HEK): 14400 nM | TGI (MCF7): 1530 nM | GI50 (MCF7; Homo sapiens): 350 nM | GI50 (OVCAR-4; Homo sapiens, OVCAR-4): 690 nM | CC50 (OVCAR-4; Homo sapiens, OVCAR-4, read-out: LC50): 9500 nM | TGI (OVCAR-4; OVCAR-4): 2800 nM | GI50 (SK-MEL-2; Homo sapiens): 14000 nM | TGI (SK-MEL-2): 3100 nM | GI50 (T-47D; Homo sapiens, T47D): 910 nM | CC50 (T-47D; Homo sapiens, T47D, read-out: LC50): > 100000 nM | TGI (T-47D; T-47D): 9110 nM | TGI (COLO 205; COLO 205): 1290 nM | GI50 (COLO 205; Homo sapiens, COLO 205): 160 nM | CC50 (COLO 205; Homo sapiens, COLO 205, read-out: LC50): 5400 nM | GI50 (UO-31; Homo sapiens, UO-31): 1670 nM | CC50 (UO-31; Homo sapiens, UO-31, read-out: LC50): 8760 nM | TGI (UO-31; UO-31): 3820 nM | GI50 (UACC-62; Homo sapiens, UACC-62): 400 nM | CC50 (UACC-62; Homo sapiens, UACC-62, read-out: LC50): 5300 nM | TGI (UACC-62; UACC-62): 1900 nM | TGI (NCI/ADR-RES): >100000 nM | GI50 (NCI/ADR-RES; Homo sapiens): > 100000 nM | CC50 (NCI/ADR-RES; Homo sapiens, read-out: LC50): > 100000 nM | GI50 (NCI-H23; Homo sapiens, NCI-H23): 250 nM | CC50 (NCI-H23; Homo sapiens, NCI-H23, read-out: LC50): 4240 nM | TGI (NCI-H23; NCI–H23): 700 nM | GI50 (U251; Homo sapiens, U-251): 420 nM | CC50 (U251; Homo sapiens, U-251, read-out: LC50): 4800 nM | TGI (U251; U251): 1800 nM | GI50 (SN12C; Homo sapiens, SN12C): 450 nM | CC50 (SN12C; Homo sapiens, SN12C, read-out: LC50): 6750 nM | TGI (SN12C; SN12c): 2060 nM | GI50 (RPMI-8226; Homo sapiens, RPMI-8226): 470 nM | CC50 (RPMI-8226; Homo sapiens, RPMI-8226, read-out: LC50): > 100000 nM | TGI (RPMI-8226; RPMI-8226): 2500 nM | GI50 (SW-620; Homo sapiens, SW-620): 300 nM | CC50 (SW-620; Homo sapiens, SW-620, read-out: LC50): 4300 nM | TGI (SW-620; SW620): 1200 nM | TGI (HOP-62; HOP-62): 5200 nM | GI50 (HOP-62; Homo sapiens, HOP-62): 1980 nM | CC50 (HOP-62; Homo sapiens, HOP-62, read-out: LC50): 23400 nM | TGI (LOX IMVI): 440 nM | GI50 (LOX IMVI; Homo sapiens): 200 nM | CC50 (LOX IMVI; Homo sapiens, read-out: LC50): 960 nM | TGI (HCC-2998; HCC-2998): 2620 nM | GI50 (HCC-2998; Homo sapiens, HCC 2998): 1240 nM | CC50 (HCC-2998; Homo sapiens, HCC 2998, read-out: LC50): 5500 nM | GI50 (K-562; Homo sapiens, K562): 310 nM | TGI (K-562; K-562): 1500 nM | GI50 (SK-MEL-5; Homo sapiens, SK-MEL-5): 630 nM | CC50 (SK-MEL-5; Homo sapiens, SK-MEL-5, read-out: LC50): 4600 nM | TGI (SK-MEL-5; SK-MEL-5): 2010 nM | GI50 (NCI-H226; Homo sapiens, NCI-H226): 800 nM | CC50 (NCI-H226; Homo sapiens, NCI-H226, read-out: LC50): 37500 nM | TGI (NCI-H226; NCI–H226): 3500 nM | GI50 (MDA-MB-468; Homo sapiens, MDA-MB-468): 430 nM | CC50 (MDA-MB-468; Homo sapiens, MDA-MB-468, read-out: LC50): 7070 nM | TGI (MDA-MB-468; MDA-MB-468): 1820 nM | GI50 [1]: 160 to 3600 nM | GI50 (PC-3; Homo sapiens, PC-3): 380 nM | CC50 (PC-3; Homo sapiens, PC-3, read-out: LC50): 6120 nM | TGI (PC-3; PC-3): 1920 nM | TGI (CCRF-CEM): 3600 nM | GI50 (CCRF-CEM; Homo sapiens): 400 nM | CC50 (CCRF-CEM; Homo sapiens, read-out: LC50): > 100000 nM
